Reference: patent US8168647B2, “Vinblastine derivatives, their preparation, use and pharmaceutical compositions comprising the said derivatives” (Shanghai Institute of Materia Medica Chinese Academy of …, priority 2007, dated 2012)
Structures can show the parent of a compound that is named as a salt. Where two headings read alike, the source gives them in different places. Marks after values point to notes of the source that are not given here.

Legend:
[1] = test system: human cervical carcinoma cell line Hela; assay: In vitro cytotoxicity assay, Sulforhodamine B (SRB), Hela; type: cell-based
[2] = test system: sarcoma 180; assay: In vivo antitumor assay on Sarcoma 180 (S180) in mice; conditions: for inhibition in vivo at 10 mg/kg / inhibition in vivo at 20 mg/kg / inhibition in vivo at 40 mg/kg: Mus musculus, Sarcoma-180, iv; for inhibition in vivo at 10 mg/kg: read-out: Inhibition rate %, 10 mg/kg, iv, d 1, 4
[3] = test system: human non-small cell lung cancer cell line A-549; assay: In vitro cytotoxicity assay, Sulforhodamine B (SRB), A-549; type: cell-based
[4] = test system: human non-small cell lung cancer (A549) xenografts; assay: Nude mice models bearing human non-small cell lung cancer (A549) xenografts; conditions: for Body weight (g) dn / TV (mm^3) x ± SD dn: dn: 12 days after the first administration; for RTV x ± SD: relative tumor volume
[5] = Homo sapiens, HeLa, 72 h, read-out: Hela (IC50, nM)
[6] = read-out: Inhibition rate %, 20 mg/kg, iv d 1
[7] = Homo sapiens, A549, 72 h, read-out: A549 (IC50, nM)
[8] = iv, BM48 tartrate once at d0, vinorelbine tartrate twice at d0 and d4
[9] = read-out: Inhibition rate %, 20 mg/kg, iv, d 1, 4
[10] = read-out: Inhibition rate %, 40 mg/kg, iv, d 1, 4

SMILES	Average weight (g) At sacrifice ([2]; 10 mg/kg, iv, d 1, 4) [g]	Tumor Weight (g) X ± SD ([2]; 10 mg/kg, iv, d 1, 4) [g]	IC50 [1, 5] [nM]	inhibition in vivo at 10 mg/kg [2] [%]	cell-based efficacy, inhibition of tumor cell proliferation (in words) [3]	IC50 [3, 7] [nM]	Average weight (g) At sacrifice ([2]; 20 mg/kg, iv, d 1, 4) [g]	Tumor Weight (g) X ± SD ([2]; 20 mg/kg, iv, d 1, 4) [g]	Average weight (g) At sacrifice ([2]; 40 mg/kg, iv, d 1, 4) [g]	Tumor Weight (g) X ± SD ([2]; 40 mg/kg, iv, d 1, 4) [g]	inhibition in vivo at 20 mg/kg [2, 9] [%]	inhibition in vivo at 40 mg/kg [2, 10] [%]	also measured
CCC1=C[C@@H]2CN(CCc3c([nH]c4ccccc34)[C@@](C(=O)OC)(c3cc4c(cc3OC)N(C)[C@H]3[C@@](O)(C(=O)OC)[C@H](OC(C)=O)[C@]5(CC)C=CCN6CC[C@]43[C@@H]65)C2)C1 [Anhydrovinblastine tartrate, anhydrovinblastine tartrate, reference compound]	27.9	0.49 ± 0.10											IC50 ([1]; SRB assay, 72 hours incubation, ditartrate of all compounds used, read-out: Hela (IC50)): 40.2 nM; Inhibition rate % ([2]; 10 mg/kg, iv, d 1, 4): 69.4* %; IC50 ([3]; SRB assay, 72 hours incubation, ditartrate of all compounds used, read-out: A549 (IC50)): 60.2 nM
CCC(=O)NCC1(O)[C@H](OC(C)=O)[C@]2(CC)C=CCN3CC[C@@]4(c5cc([C@@]6(C(=O)OC)C[C@@H]7C=C(CC)CN(CCc8c6[nH]c6ccccc86)C7)c(OC)cc5N(C)[C@@H]14)[C@@H]32 (stereo partly drawn) [BM27]	21.4	0.25 ± 0.06	13.4	84.4	excellent cell-based efficacy	42.9							Average weight (g) At sacrifice ([2]; 20 mg/kg, iv d 1): 20.7 g; Tumor Weight (g) X ± SD ([2]; 20 mg/kg, iv d 1): 0.16 ± 0.03 g; inhibition in vivo at 20 mg/kg [2, 6]: 90%
CCC1=C[C@@H]2CN(CCc3c([nH]c4ccccc34)[C@@](C(=O)OC)(c3cc4c(cc3OC)N(C)[C@H]3C(O)(CNC(=O)C5CC5)[C@H](OC(C)=O)[C@]5(CC)C=CCN6CC[C@]43[C@@H]65)C2)C1 (stereo partly drawn) [BM33]	22.2	0.30 ± 0.05	17	81.3	excellent cell-based efficacy	26.4							Average weight (g) At sacrifice ([2]; 20 mg/kg, iv d 1): 23.9 g; Tumor Weight (g) X ± SD ([2]; 20 mg/kg, iv d 1): 0.18 ± 0.02 g; inhibition in vivo at 20 mg/kg [2, 6]: 88.8%
CCC1=C[C@@H]2CN(CCc3c([nH]c4ccccc34)[C@@](C(=O)OC)(c3cc4c(cc3OC)N(C)[C@H]3C(O)(CNC(=O)c5ccc6c(c5)OCO6)[C@H](OC(C)=O)[C@]5(CC)C=CCN6CC[C@]43C65)C2)C1 (stereo partly drawn) [BM47]	25.3	0.67 ± 0.07	19	58.1	excellent cell-based efficacy	14.4							Average weight (g) At sacrifice ([2]; 20 mg/kg, iv d 1): 23.3 g; Tumor Weight (g) X ± SD ([2]; 20 mg/kg, iv d 1): 0.54 ± 0.17 g; inhibition in vivo at 20 mg/kg [2, 6]: 66.3%
CCC1=C[C@@H]2CN(CCc3c([nH]c4ccccc34)[C@@](C(=O)OC)(c3cc4c(cc3OC)N(C)[C@H]3C(O)(CNC(=O)OC)[C@H](OC(C)=O)[C@]5(CC)C=CCN6CC[C@]43[C@@H]65)C2)C1 (stereo partly drawn) [BM48]	27.1	0.85 ± 0.11	34.8	46.9	excellent cell-based efficacy	75.3							Average weight (g) At sacrifice ([2]; 20 mg/kg, iv d 1): 24.2 g; Tumor Weight (g) X ± SD ([2]; 20 mg/kg, iv d 1): 0.35 ± 0.03 g; inhibition in vivo at 20 mg/kg [2, 6]: 78.1%; T/C (%) ([4]; 1.5 mg/kg iv once at d0): 74.0%; Body weight (g) dn ([4]; 1.5 mg/kg iv once at d0): 21.3 g; TV (mm^3) x ± SD dn ([4]; 1.5 mg/kg iv once at d0): 2080 ± 542 mm^3; RTV x ± SD ([4]; 1.5 mg/kg iv once at d0): 8.18 ± 2.20; T/C (%) ([4]; 3 mg/kg iv once at d0): 62.9* %; Body weight (g) dn ([4]; 3 mg/kg iv once at d0): 20.4 g; TV (mm^3) x ± SD dn ([4]; 3 mg/kg iv once at d0): 1545 ± 410 mm^3; RTV x ± SD ([4]; 3 mg/kg iv once at d0): 6.96 ± 1.79; T/C (%) ([4]; 6 mg/kg iv once at d0): 31.5* %; Body weight (g) dn ([4]; 6 mg/kg iv once at d0): 18.8 g; TV (mm^3) x ± SD dn ([4]; 6 mg/kg iv once at d0): 808 ± 336 mm^3; RTV x ± SD ([4]; 6 mg/kg iv once at d0): 3.48 ± 1.83; efficacy against A549 xenografts (in words) [4, 8]: significantly inhibited; toxicity in the mice (in words) [4, 8]: appeared to show toxicity after the administration of BM48, but could recover well later; efficacy against A549 xenografts (in words) ([4]; iv, BM48 tartrate once at d0, vinorelbine tartrate twice at d0 and d4, listed as BM48 tartrate): comparable to or even a little better than vinorelbine tartrate
CCC1=C[C@@H]2CN(CCc3c([nH]c4ccccc34)[C@@](C(=O)OC)(c3cc4c(cc3OC)N(C)[C@H]3C(O)(CNC(=O)OCC(C)C)[C@H](OC(C)=O)[C@]5(CC)C=CCN6CC[C@]43[C@@H]65)C2)C1 (stereo partly drawn) [BM53]	25.4	0.24 ± 0.09	7.1	85	excellent cell-based efficacy	13.7							
CCC1=C[C@@H]2CN(CCc3c([nH]c4ccccc34)[C@@](C(=O)OC)(c3cc4c(cc3OC)N(C)[C@H]3C(O)(CNC(=O)OCC5CC5)[C@H](OC(C)=O)[C@]5(CC)C=CCN6CC[C@]43[C@@H]65)C2)C1 (stereo partly drawn) [BM57]	25.2	0.26 ± 0.07	13.2	83.8	excellent cell-based efficacy	60.6							
CCC1=C[C@@H]2CN(CCc3c([nH]c4ccccc34)[C@@](C(=O)OC)(c3cc4c(cc3OC)N(C)[C@H]3[C@@]5(CNC(=O)O5)[C@H](OC(C)=O)[C@]5(CC)C=CCN6CC[C@]43[C@@H]65)C2)C1 [BM74]			342			710							
CC[C@]12C=CCN3CC[C@@]4(c5cc([C@@]6(C(=O)OC)C[C@@H]7C[C@@H](C(C)(F)F)CN(CCc8c6[nH]c6ccccc86)C7)c(OC)cc5N(C)[C@H]4C(O)(COC(C)=O)[C@@H]1OC(C)=O)[C@@H]32 (stereo partly drawn) [BM75]			> 1000			> 1000	30.9	1.53 ± 0.56	33.3	1.85 ± 0.32	4.4	0	
CC[C@]12C=CCN3CC[C@@]4(c5cc([C@@]6(C(=O)OC)C[C@@H]7C[C@@H](C(C)(F)F)CN(CCc8c6[nH]c6ccccc86)C7)c(OC)cc5N(C)[C@H]4C(O)(COC(=O)C4CC4)[C@@H]1OC(C)=O)[C@@H]32 (stereo partly drawn) [BM76]			> 1000			> 1000	31.4	1.20 ± 0.09	31.8	1.25 ± 0.45	25	21.9	
CC[C@]12C=CCN3CC[C@@]4(c5cc([C@@]6(C(=O)OC)C[C@@H]7C[C@@H](C(C)(F)F)CN(CCc8c6[nH]c6ccccc86)C7)c(OC)cc5N(C)[C@H]4C(O)(CNC(C)=O)[C@@H]1OC(C)=O)[C@@H]32 (stereo partly drawn) [BM77]			> 1000			> 1000							
CCC(=O)NCC1(O)[C@H](OC(C)=O)[C@]2(CC)C=CCN3CC[C@@]4(c5cc([C@@]6(C(=O)OC)C[C@@H]7C[C@@H](C(C)(F)F)CN(CCc8c6[nH]c6ccccc86)C7)c(OC)cc5N(C)[C@@H]14)[C@@H]32 (stereo partly drawn) [BM78]			> 1000			> 1000	30.1	0.76 ± 0.29	29.0	0.36 ± 0.11	52.5	77.5	Average weight (g) At sacrifice ([2]; 40 mg/kg, iv d 1): 28.8 g; Tumor Weight (g) X ± SD ([2]; 40 mg/kg, iv d 1): 0.48 ± 0.15 g; inhibition in vivo at 40 mg/kg ([2]; read-out: Inhibition rate %, 40 mg/kg, iv d 1): 70%; antitumor activity in vivo (in words) ([2]; S180 in mice, iv): strong antitumor activity in vivo
CC[C@]12C=CCN3CC[C@@]4(c5cc([C@@]6(C(=O)OC)C[C@@H]7C[C@@H](C(C)(F)F)CN(CCc8c6[nH]c6ccccc86)C7)c(OC)cc5N(C)[C@H]4C(O)(CNC(=O)OC)[C@@H]1OC(C)=O)[C@@H]32 (stereo partly drawn) [BM79]			> 1000			> 1000	33.0	1.47 ± 0.15	29.5	0.84 ± 0.49	8.1	47.5	
CC[C@]12C=CCN3CC[C@@]4(c5cc([C@@]6(C(=O)OC)C[C@@H]7C[C@@H](C(C)(F)F)CN(CCc8c6[nH]c6ccccc86)C7)c(OC)cc5N(C)[C@H]4C(O)(CNC(=O)OCC(C)C)[C@@H]1OC(C)=O)[C@@H]32 (stereo partly drawn) [BM80]			> 1000			> 1000	34.5	1.55 ± 0.34	32.5	1.58 ± 0.12	3.1	1.2	
CC[C@]1(O)C[C@@H]2CN(CCc3c([nH]c4ccccc34)[C@@](C(=O)OC)(c3cc4c(cc3OC)N(C)[C@H]3[C@@](O)(C(=O)OC)[C@H](OC(C)=O)[C@]5(CC)C=CCN6CC[C@]43[C@@H]65)C2)C1 [Vinblastine sulfate, vinblastine sulfate, reference compound]			2.5			3.4							
CC[C@]1(O)C[C@H]2CN(CCc3c([nH]c4ccccc34)[C@@](C(=O)OC)(c3cc4c(cc3OC)N(C=O)[C@H]3[C@@](O)(C(=O)OC)[C@H](OC(C)=O)[C@]5(CC)C=CCN6CC[C@]43[C@@H]65)C2)C1 [Vincristine sufate, reference compound]													IC50 ([1]; Homo sapiens, HeLa, SRB assay, 72 hours incubation, ditartrate of all compounds used, read-out: Hela (IC50)): 11.3 nM; IC50 ([3]; Homo sapiens, A549, SRB assay, 72 hours incubation, ditartrate of all compounds used, read-out: A549 (IC50)): 25.1 nM
